Laboratory results as given in patent US11339136B2 (Novartis AG, priority 2016, dated 2022).

Target: T1, hNLRP3 (Homo sapiens, UniProt Q96P20)
T1 construct: THP-1 cells were purchased from the American Type Culture Collection; host or cells: THP-1 cells, PMA-differentiated
Assay: IL-1β production in PMA-differentiated THP-1 cells stimulated with gramicidin
Format: cell-based
Details: gramicidin 5 μM, IL-1β in supernatant
Experimental: Bioassay: IL-1β Production in PMA-Differentiated THP-1 Cells Stimulated with Gramicidin. Procedure 1:
Cell culture—THP-1 cells were purchased from the American Type Culture Collection and sub-cultured according to instructions from the supplier. Prior to experiments, cells were cultured in RPMI 1640 containing 10% heat inactivated FBS, penicillin (100 units/ml) and streptomycin (100 μg/ml), and maintained in log phase prior to experimental setup. Prior to the experiment THP-1 were treated with PMA (Phorbol 12-myristate 13-acetate) (10 μg/ml) for 24 hours. The day of the experiment the media was removed and attaching cells were treated with trypsin for 2 minutes, cells were then collected, washed with PBS (phosphate buffer saline), spin down, resuspended in 2% heat inactivated FBS with RPMI at a concentration of 1×10^6 cells/ml, and 100 ul was plated in a 96 well plate. Cells were incubated with compounds for 1 hours and then stimulated with Gramicidin (5 μM) (Enzo) for 2 hours. Cell free supernatant was collected and the production of IL-1β was evaluated by ELISA. Compounds were dissolved in dimethyl sulfoxide (DMSO) and added to the culture medium to achieve desired concentration (e.g. 100, 30, 10, 3, 1, 0.3 or 0.1 μM). A vehicle only control was run concurrently with each experiment. Final DMSO concentration was 1%.
THP-1 cells were purchased from the American Type Culture Collection and sub-cultured according to instructions from the supplier. Prior to experiments, cells were cultured in complete RPMI 1640 (containing 10% heat inactivated FBS, penicillin (100 units/ml) and streptomycin (100 μg/ml)), and maintained in log phase prior to experimental setup. Prior to the experiment THP-1 were treated with PMA (Phorbol 12-myristate 13-acetate) (20 ng/ml) for 16-18 hours. On the day of the experiment the media was removed and adherent cells were detached with trypsin for 5 minutes. Cells were then harvested, washed with complete RPMI 1640, spun down, resuspended in RPMI 1640 (containing 2% heat inactivated FBS, penicillin (100 units/ml) and streptomycin (100 μg/ml). The cells were plated in a 384-well plate at a density of 50,000 cells/well (final assay volume 50 μl). Compounds were dissolved in dimethyl sulfoxide (DMSO) and added to the culture medium to achieve desired concentration (e.g. 100, 33, 11, 3.7, 1.2, 0.41, 0.14, 0.046, 0.015, 0.0051, 0.0017 μM). Cells were incubated with compounds for 1 hour and then stimulated with gramicidin (5 μM) (Enzo) for 2 hours. Cell free supernatant was collected and the production of IL-1β was evaluated by HTRF (cisbio). A vehicle only control was run concurrently with each experiment. Final DMSO concentration was 0.38%.

T1 sequence (Q96P20 whole entry): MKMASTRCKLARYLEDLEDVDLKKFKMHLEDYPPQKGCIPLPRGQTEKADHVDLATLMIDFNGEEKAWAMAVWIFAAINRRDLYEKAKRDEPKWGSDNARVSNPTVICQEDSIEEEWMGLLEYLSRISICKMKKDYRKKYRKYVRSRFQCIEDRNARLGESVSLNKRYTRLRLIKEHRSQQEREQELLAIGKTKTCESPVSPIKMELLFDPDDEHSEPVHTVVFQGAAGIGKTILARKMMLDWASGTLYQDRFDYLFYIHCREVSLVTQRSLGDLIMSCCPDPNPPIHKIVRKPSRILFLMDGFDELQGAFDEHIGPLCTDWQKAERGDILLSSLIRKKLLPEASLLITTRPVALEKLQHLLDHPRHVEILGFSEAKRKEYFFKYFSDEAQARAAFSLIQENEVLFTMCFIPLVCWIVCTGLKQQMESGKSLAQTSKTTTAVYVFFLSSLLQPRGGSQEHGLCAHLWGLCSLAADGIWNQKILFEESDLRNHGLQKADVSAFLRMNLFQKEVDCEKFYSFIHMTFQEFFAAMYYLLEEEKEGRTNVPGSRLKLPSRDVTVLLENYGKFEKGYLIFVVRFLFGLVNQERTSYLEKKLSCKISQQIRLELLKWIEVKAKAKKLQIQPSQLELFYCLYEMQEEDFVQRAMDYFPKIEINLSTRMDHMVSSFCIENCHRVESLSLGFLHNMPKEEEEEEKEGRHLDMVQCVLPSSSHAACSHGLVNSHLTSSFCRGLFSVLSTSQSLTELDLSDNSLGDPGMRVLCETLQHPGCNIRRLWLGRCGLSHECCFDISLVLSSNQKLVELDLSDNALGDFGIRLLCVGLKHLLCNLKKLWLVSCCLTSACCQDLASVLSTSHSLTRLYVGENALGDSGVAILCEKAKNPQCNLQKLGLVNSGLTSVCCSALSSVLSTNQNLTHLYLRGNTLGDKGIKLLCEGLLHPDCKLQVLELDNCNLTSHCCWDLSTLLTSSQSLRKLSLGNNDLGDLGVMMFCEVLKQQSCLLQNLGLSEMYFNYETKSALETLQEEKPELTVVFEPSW

Compound	IC50 (Table 1)	IC50 (Table 2)
CC(C)c1cc(C#N)cc(C(C)C)c1NC(=O)NS(=O)(=O)c1cc(C(C)(C)O)co1 [Compound 104, N-(4-cyano-2,6-diisopropylphenyl-carbamoyl)-4-(2-hydroxypropan-2-yl)furan-2-sulfonamide]	< 1 µM	–
CC(C)(O)c1coc(S(=O)(=O)NC(=O)Nc2c3c(c(C#N)c4c2CCC4)CCC3)c1 [Compound 105, N-(8-cyano-1,2,3,5,6,7-hexahydros-indacen-4-ylcarbamoyl)-4-(2-hydroxypropan-2-yl)furan-2-sulfonamide]	< 1 µM	–
CC(C)c1cc(F)cc(C(C)C)c1NC(=O)NS(=O)(=O)c1cc(C(C)(C)O)co1 [Compound 115, N-(4-fluoro-2,6-diisopropylphenyl-carbamoyl)-4-(2-hydroxypropan-2-yl)furan-2-sulfonamide]	< 1 µM	–
CC(C)c1cc(C(N)=O)cc(C(C)C)c1NC(=O)NS(=O)(=O)c1cc(C(C)(C)O)co1 [Compound 116, 4-(3-(4-(2-hydroxypropan-2-yl)furan-2-ylsulfonyl)ureido)-3,5-diisopropylbenz-amide]	15 to 35 µM	–
CC(C)c1cncc(C(C)C)c1NC(=O)NS(=O)(=O)c1ncc(C(C)(C)O)s1 [Compound 138]	–	1 to 5 µM
CC(C)c1cc(F)cc(C(C)C)c1NC(=O)NS(=O)(=O)c1ncc(C(C)(C)O)s1 [Compound 139, N-(4-fluoro-2,6-diisopropylphenyl-carbamoyl)-5-(2-hydroxypropan-2-yl)thiazole-2-sulfonamide]	–	< 1 µM
CC(C)c1ccc(Cl)c(C(C)C)c1NC(=O)NS(=O)(=O)c1nc(C(C)(C)O)cs1 [Compound 144, N-(3-chloro-2,6-diisopropylphenylcarbamoyl)-4-(2-hydroxypropan-2-yl) thiazole-2-sulfonamide]	–	1 to 5 µM
CC(C)c1ccc(F)c(C(C)C)c1NC(=O)NS(=O)(=O)c1nc(C(C)(C)O)cs1 [Compound 145, N-(3-fluoro-2,6-diisopropylphenylcarbamoyl)-4-(2-hydroxypropan-2-yl)thiazole-2-sulfonamide]	–	1 to 5 µM
CC(C)c1cc(C#N)cc(C(C)C)c1NC(=O)NS(=O)(=O)c1nc(C(C)(C)O)cs1 [Compound 146, N-(4-cyano-2,6-diisopropylphenylcarbamoyl)-4-(2-hydroxypropan-2-yl)thiazole-2-sulfonamide]	–	1 to 5 µM
CC(C)c1cc(Cl)cc(C(C)C)c1NC(=O)NS(=O)(=O)c1nc(C(C)(C)O)cs1 [Compound 147, N-(4-chloro-2,6-diisopropylphenylcarbamoyl)-4-(2-hydroxypropan-2-yl)thiazole-2-sulfonamide]	–	1 to 5 µM
CC(C)c1cc(F)cc(C(C)C)c1NC(=O)NS(=O)(=O)c1nc(C(C)(C)O)cs1 [Compound 148, N-(4-fluoro-2,6-diisopropylphenylcarbamoyl)-4-(2-hydroxypropan-2-yl) thiazole-2-sulfonamide]	–	1 to 5 µM
Cc1nc(S(=O)(=O)NC(=O)Nc2c(C(C)C)ccc(Cl)c2C(C)C)sc1C(C)(C)O [Compound 149, N-(3-chloro-2,6-diisopropylphenylcarbamoyl)-5-(2-hydroxypropan-2-yl)-4-methylthiazole-2-sulfonamide]	–	15 to 35 µM
Cc1nc(S(=O)(=O)NC(=O)Nc2c(C(C)C)ccc(F)c2C(C)C)sc1C(C)(C)O [Compound 150, N-(3-fluoro-2,6-diisopropylphenylcarbamoyl)-5-(2-hydroxypropan-2-yl)-4-methylthiazole-2-sulfonamide]	–	< 1 µM
Cc1nc(S(=O)(=O)NC(=O)Nc2c(C(C)C)cc(Cl)cc2C(C)C)sc1C(C)(C)O [Compound 151, N-(4-chloro-2,6-diisopropylphenylcarbamoyl)-5-(2-hydroxypropan-2-yl)-4-methylthiazole-2-sulfonamide]	–	1 to 5 µM
Cc1nc(S(=O)(=O)NC(=O)Nc2c(C(C)C)cc(F)cc2C(C)C)sc1C(C)(C)O [Compound 152, N-(4-fluoro-2,6-diisopropylphenylcarbamoyl)-5-(2-hydroxypropan-2-yl)-4-methylthiazole-2-sulfonamide]	–	5 to 15 µM
Cc1sc(S(=O)(=O)NC(=O)Nc2c(C(C)C)ccc(Cl)c2C(C)C)cc1C(C)(C)O [Compound 153, N-(3-chloro-2,6-diisopropylphenyl-carbamoyl)-4-(2-hydroxypropan-2-yl)-5-methylthiophene-2-sulfonamide]	–	5 to 15 µM
Cc1sc(S(=O)(=O)NC(=O)Nc2c(C(C)C)ccc(F)c2C(C)C)cc1C(C)(C)O [Compound 154, N-(3-fluoro-2,6-diisopropylphenylcarbamoyl)-4-(2-hydroxypropan-2-yl)-5-methylthiophene-2-sulfonamide]	–	1 to 5 µM
Cc1nc(S(=O)(=O)NC(=O)Nc2c(C(C)C)cc(C#N)cc2C(C)C)sc1C(C)(C)O [Compound 155]	–	5 to 15 µM

Second part, the molecule after the results:

IC50 (Table 1)	IC50 (Table 2)	Compound
–	< 1 µM	Cc1sc(S(=O)(=O)NC(=O)Nc2c(C(C)C)cc(Cl)cc2C(C)C)cc1C(C)(C)O [Compound 156, N-(4-chloro-2,6-diisopropylphenyl-carbamoyl)-4-(2-hydroxypropan-2-yl)-5-methylthiophene-2-sulfonamide]
–	< 1 µM	Cc1sc(S(=O)(=O)NC(=O)Nc2c(C(C)C)cc(F)cc2C(C)C)cc1C(C)(C)O [Compound 157, N-(4-fluoro-2,6-diisopropylphenyl-carbamoyl)-4-(2-hydroxypropan-2-yl)-5-methylthiophene-2-sulfonamide]
–	1 to 5 µM	CCc1cc(C#N)cc(CC)c1NC(=O)NS(=O)(=O)c1ncc(C(C)(C)O)s1 [Compound 158, N-(4-cyano-2,6-diethylphenylcarbamoyl)-5-(2-hydroxypropan-2-yl)thiazole-2-sulfonamide]
–	1 to 5 µM	CCc1cc(C#N)cc(CC)c1NC(=O)NS(=O)(=O)c1cc(C(C)(C)O)cs1 [Compound 159, N-(4-cyano-2,6-diethylphenylcarbamoyl)-4-(2-hydroxypropan-2-yl)thiophene-2-sulfonamide]
–	1 to 5 µM	CCc1cc(F)cc(CC)c1NC(=O)NS(=O)(=O)c1cc(C(C)(C)O)cs1 [Compound 161, N-(2,6-diethyl-4-fluorophenylcarbamoyl)-4-(2-hydroxypropan-2-yl)thiophene-2-sulfonamide]
–	< 1 µM	Cc1sc(S(=O)(=O)NC(=O)Nc2c(C(C)C)cc(C#N)cc2C(C)C)cc1C(C)(C)O [Compound 162, N-(4-cyano-2,6-diisopropylphenyl-carbamoyl)-4-(2-hydroxypropan-2-yl)-5-methylthiophene-2-sulfonamide]
–	1 to 5 µM	CCc1ccc2c(c1NC(=O)NS(=O)(=O)c1ncc(C(C)(C)O)s1)CCC2 [Compound 165, N-(5-ethyl-2,3-dihydro-1H-inden-4-ylcarbamoyl)-5-(2-hydroxypropan-2-yl) thiazole-2-sulfonamide]
–	1 to 5 µM	CCc1ccc2c(c1NC(=O)NS(=O)(=O)c1cc(C(C)(C)O)cs1)CCC2 [Compound 166, N-(5-ethyl-2,3-dihydro-1H-inden-4-ylcarbamoyl)-4-(2-hydroxypropan-2-yl)thiophene-2-sulfonamide]
–	5 to 15 µM	CC(C)c1ccc(F)c(C(C)C)c1NC(=O)NS(=O)(=O)c1ncc(C2(O)CCCCC2)s1 [Compound 167, N-(3-fluoro-2,6-diisopropylphenylcarbamoyl)-5-(1-hydroxycyclohexyl) thiazole-2-sulfonamide]
–	5 to 15 µM	CC(C)c1ccc(F)c(C(C)C)c1NC(=O)NS(=O)(=O)c1ncc(C2(O)CCCC2)s1 [Compound 168, N-(3-fluoro-2,6-diisopropylphenylcarbamoyl)-5-(1-hydroxycyclopentyl) thiazole-2-sulfonamide]
–	5 to 15 µM	CC(C)c1ccc(F)c(C(C)C)c1NC(=O)NS(=O)(=O)c1ncc(C2(O)CCC2)s1 [Compound 169, N-(3-fluoro-2,6-diisopropylphenylcarbamoyl)-5-(1-hydroxycyclobutyl) thiazole-2-sulfonamide]
–	5 to 15 µM	CCc1cc(Cl)cc(CC)c1NC(=O)NS(=O)(=O)c1ncc(C(C)(C)O)s1 [Compound 170, N-(4-chloro-2,6-diethylphenylcarbamoyl)-5-(2-hydroxypropan-2-yl) thiazole-2-sulfonamide]
–	1 to 5 µM	CCc1cc(Cl)cc(CC)c1NC(=O)NS(=O)(=O)c1cc(C(C)(C)O)cs1 [Compound 171, N-(4-chloro-2,6-diethylphenylcarbamoyl)-4-(2-hydroxypropan-2-yl) thiophene-2-sulfonamide]
